Series [1] can be described thus: propidium iodide flow cytometry, PBMC all cells, whole blood. The series is classed as cell-based. To be noted: human, mean ± SD of 2 experiments. On the procedure:
FIGS. 15A, 15B, and 15C depict TUNEL analysis of PBMC treated with taurolidine in whole blood, for control cells, taurolidine-treated cells, and anisomycin-treated cells, respectively . Cells were incubated with 500 μg/ml taurolidine for 4 hours, resuspended in fresh medium, incubated for two hours further and processed for TUNEL analysis. Parallel samples were stained with FITC-conjugated anti-CD14 and PI as described herein. Ten thousand events were recorded per sample. TUNEL signal (x -axis) is a measure of DNA fragmentation, while FSC (y-axis) is related to cell size. TUNEL-negative lymphocytes are bounded by rectangle R 1, while TUNEL-negative monocytes (CD 14 positive cells) are bounded by rectangle R2. […]
In the second method, DNA fragmentation was detected via TUNEL assay according to the manufacturer's instructions. With this methodology, 2×10^6 cells were fixed with 2% paraformaldehyde, permeabilized with 0.1% Triton X-100/0.1% citrate, incubated at 37° C. with terminal deoxynucleotidyl transferase and FITC-dUTP, rinsed and analyzed by flow cytometry. […] Parallel aliquots of unfixed cells were treated with PI and FITC-conjugated anti-CD14 and analyzed by flow cytometry, in order to identify cells with permeable cell membranes (since PI binds to DNA but is excluded from cells with intact plasma membranes) and also to determine the cell-specificity of the apoptotic signal. […]

Series [2] deals with peripheral blood monocytes. Kind of series: cell size by flow cytometry (FSC), peripheral blood monocytes. To be noted: taurolidine 6 h. It is filed as cell-based, human. As for the experimental part: FIG. 12A, FIG. 12B, FIG. 12C, and FIG. 12D are flow cytometric analyses depicting changes in cell morphology following taurolidine treatment. MM6 and PBMC were treated for three hours with taurolidine, and then treated and untreated control cells were processed for flow cytometry. Monocytes in PBMC samples were identified by staining with FITC-conjugated anti-CD14, and lymphocytes by FITC-conjugated anti-CD3 and PE-conjugated anti-CD19. FIG. 12A represents untreated MM6 cells; FIG. 12B represents MM6 cells treated with 50 μg/ml taurolidine; FIG. 12C represents untreated PBMC; and FIG. 12D represents PBMC treated with 75 μg/ml taurolidine. M=monocytes; L=lymphocytes.
A Becton-Dickinson FACSCalibur instrument was used for flow cytometric analysis of cells. Assessment of cell diameter (forward scatter; FCS) and granularity (side scatter; SSC).was carried out on unfixed cells. Discrimination between lymphocytes and monocytes was made possible by their characteristic differences in FSC and SSC, and confirmed by staining monocytes with FITC-labeled anti-CD14 antibodies and lymphocytes with a combination of FITC-conjugated anti-CD3 and PE-conjugated anti-CD19. After incubation with taurolidine (with or without concomitant LPS treatment), cells were rinsed twice in phosphate-buffered saline containing 0.1% bovine serum albumin (PBSA) and 1×10^6 cells were resuspended in 0.1 ml PBSA. […]

Series [3] can be described thus: TUNEL / propidium iodide flow cytometry, PBMC all cells, culture medium. It is filed as cell-based, human. To be noted: human, pbmc, PBMC all cells, 6 h, mean ± SD of two experiments, read-out: % Propidium Iodide Positive. On the procedure:
(§1) FIG. 14A and FIG. 14B are terminal deoxytransferase-mediated deoxyuridine-triphosphate-biotin nick end labeling assay (TUNEL) analyses of control cells and taurolidine-treated PBMC, respectively. Cells were incubated with 100 μg/ml taurolidine for six hours and processed for TUNEL analysis as given below. Parallel samples were stained with FITC-conjugated anti-CD14 and propidium iodide (PI) as described below. Ten thousand events were recorded per sample. TUNEL signal (x-axis) is a measure of DNA fragmentation, which FSC (y-axis) is related to cell size. TUNEL-negative lymphocytes are bounded by the rectangle R1, while TUNEL-negative monocytes (CD14 positive cells) are bounded by the rectangle R2. The vertical line indicates demarcation between TUNEL-negative and TUNEL-positive cells. There were minimal numbers of PI-positive cells in the six hour samples (see Table IV).
(§2) In the second method, DNA fragmentation was detected via TUNEL assay according to the manufacturer's instructions. With this methodology, 2×10^6 cells were fixed with 2% paraformaldehyde, permeabilized with 0.1% Triton X-100/0.1% citrate, incubated at 37° C. with terminal deoxynucleotidyl transferase and FITC-dUTP, rinsed and analyzed by flow cytometry. Enhanced FITC signal indicates apoptosis-specific DNA fragmentation. Gavriali, et al, "Identification of programmed cell death in situ via specific labeling of nuclear DNA fragmentation," J Cell Biol 119:493 (1992). Parallel aliquots of unfixed cells were treated with PI and FITC-conjugated anti-CD14 and analyzed by flow cytometry, in order to identify cells with permeable cell membranes (since PI binds to DNA but is excluded from cells with intact plasma membranes) and also to determine the cell-specificity of the apoptotic signal.
(§3) A Becton-Dickinson FACSCalibur instrument was used for flow cytometric analysis of cells. Assessment of cell diameter (forward scatter; FCS) and granularity (side scatter; SSC).was carried out on unfixed cells. Discrimination between lymphocytes and monocytes was made possible by their characteristic differences in FSC and SSC, and confirmed by staining monocytes with FITC-labeled anti-CD14 antibodies and lymphocytes with a combination of FITC-conjugated anti-CD3 and PE-conjugated anti-CD19. After incubation with taurolidine (with or without concomitant LPS treatment), cells were rinsed twice in phosphate-buffered saline containing 0.1% bovine serum albumin (PBSA) and 1×10^6 cells were resuspended in 0.1 ml PBSA. After 5 μl FITC-conjugated anti-CD14 was added, cells were incubated in the dark on ice for 15 minutes and then centrifuged at 250×g. Cells were resuspended in 500 μl PBSA containing 5 μg/ml PI and subjected to flow cytometry.
(§4) Consequently, TUNEL analysis was performed on PBMC at 3, 6, or 24 hours after treatment with 25 to 100 μg/ml taurolidine. Aliquots of harvested cells were also labeled with FITC-conjugated anti-CD14 antibodies and PI, which allowed identification of monocytes (CD14-positive cells) and cells with damaged cell membranes (PI-positive cells). […] Thus, nearly 75% of the monocytes were TUNEL-positive following treatment with 100 μg/ml taurolidine for six hours. Confirmation that the TUNEL-positive cells were monocytes was obtained by staining with FITC-conjugated anti-CD14.
(§5) ^a Analysis by flow cytometry after staining cells with FITC-conjugated
(§6) anti-CD14 and PI, and processing for TUNEL. Data are mean ± SD of two
On the technique in general: Flow cytometry measures light scatter and fluorescence of single cells or particles in a stream.

A further series relates to PBMC. The description is as above. The settings on record: PBMC. It is filed as cell-based, human. On the procedure: as §1, §2, §3, §4, §5, §6

For the molecule `O=S1(=O)CCN(CN2CCS(=O)(=O)NC2)CN1` [taurolidine, 4,4'-methylenebis(perhydro-1,2,4-thiadiazin 1,1-dioxide)], the cytotoxicity at 6 h amounted to 1.6 ± 0.6% in series [1] (200 μg/ml); 1.4 ± 0.2% in series [1] (500 μg/ml); 9 ± 3.2% in series [3] (25 μg/ml); 12.2 ± 5.6% in series [3] (50 μg/ml); 9 ± 3.5% in series [3] (100 μg/ml). The “decrease in FSC” value in series [2] is reported as “approximately 30%”. For the same molecule, the “TUNEL-positive PBMC” value is on record as “substantial population of TUNEL-positive cells” in the series with PBMC (100 μg/ml, 6 h) and “relatively few” with PBMC (3 h incubation). Moreover, the “PI-positive cells versus control” value in the series with PBMC (taurolidine, 6 h) is “equivalently low levels of PI-positive cells”.

The values are drawn from patent US6303596A, “Use of taurolidine for treatment of leukemias” (priority 2000, dated 2001).
